According to PubChem BioAssay (NCI):
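48-hour exposure; five concentrations; linearly interpolated endpoints. GI50: concentration for 50% inhibition of growth. Definition used: TGI = concentration required for complete inhibition of growth.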

Legend:
Assay in all cases: growth of human tumour cells (NCI), 48 h
[1] = system: K-562 leukemia
[2] = system: MOLT-4 leukemia
[3] = system: SK-OV-3 ovarian
[4] = system: NCI-H226 lung
[5] = system: SK-MEL-28 melanoma
[6] = system: CCRF-CEM leukemia
[7] = system: KM12 colon
[8] = system: UACC-62 melanoma
[9] = system: HCC-2998 colon
[10] = system: RPMI-8226 leukemia

Compound	GI50 [1]	TGI [1]	GI50 [2]	TGI [2]	GI50 [3]	TGI [3]	GI50 [4]	TGI [4]	GI50 [5]	TGI [5]	GI50 [6]	TGI [6]	GI50 [7]	TGI [7]	GI50 [8]	TGI [8]	GI50 [9]	TGI [9]	GI50 [10]	TGI [10]
O=C1Nc2c(ccc(Cl)c2Cl)/C1=C\c1cc(C(F)(F)F)cc(C(F)(F)F)c1	1.55 µM	5.97 µM	2.09 µM	4.68 µM	9.28 µM	27.2 µM	5.48 µM	13.7 µM	2.1 µM	7.61 µM	0.959 µM	2.58 µM	1.42 µM	5.53 µM	1.77 µM	7.41 µM	7.71 µM	14.9 µM	0.115 µM	1.45 µM
O=C(CC(=O)N1N=C(c2ccccc2)C(N=Nc2ccccc2Cl)C1=O)Nc1ccccc1Cl (centres undefined)		> 100 µM		> 100 µM		> 100 µM		> 100 µM		> 100 µM				> 100 µM		> 100 µM		> 100 µM		57.2 µM
NNc1ncnc2cccc(Cl)c12		> 100 µM		> 100 µM		> 100 µM		> 100 µM		> 100 µM		> 100 µM		> 100 µM		> 100 µM		> 100 µM		
CS(=O)(=O)c1ccc(-c2cnc(NCc3ccco3)n3cnnc23)cc1	72.6 µM	> 100 µM	37.4 µM	> 100 µM	> 100 µM	> 100 µM	49 µM	> 100 µM	25.3 µM	> 100 µM	38 µM	> 100 µM	> 100 µM	> 100 µM			> 100 µM	> 100 µM	53.3 µM	> 100 µM
ClCc1ccc(-c2ccc(Cn3cnc4c(Cl)ncnc43)cc2)cc1	2.9 µM	> 100 µM	1.79 µM	> 100 µM	1.98 µM	6.14 µM	1.81 µM	3.89 µM	2.49 µM	7.79 µM	2.58 µM	> 100 µM	1.59 µM	3.56 µM	1.58 µM	3.44 µM	1.44 µM	2.89 µM	2.05 µM	4.87 µM
O=Cc1cn(S(=O)(=O)c2ccccc2)c2ccccc12		50 µM		53.1 µM		> 100 µM		> 100 µM		> 100 µM		> 100 µM		> 100 µM		86 µM		> 100 µM		59.3 µM
C/C(CC(=O)Nc1ccc([N+](=O)[O-])cc1)=N\Nc1ccc([N+](=O)[O-])cc1[N+](=O)[O-]		> 100 µM		> 100 µM		> 100 µM		> 100 µM		> 100 µM		> 100 µM		> 100 µM		> 100 µM		65.4 µM		> 100 µM
CN1c2ccccc2S(=O)(=O)n2c(COc3ccccc3)nnc21		> 100 µM		> 100 µM		> 100 µM		> 100 µM		> 100 µM		> 100 µM		> 100 µM		> 100 µM		> 100 µM		
CN(CC1NCCCC1O)C12CC3CC(CC(C3)C1)C2 (centres undefined)		> 100 µM		> 100 µM		> 100 µM		> 100 µM				> 100 µM		> 100 µM		> 100 µM		> 100 µM		> 100 µM
